Structures are written as SMILES. Calls of active or inactive are those of the source.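 How the source made its calls: active means mean IC50 at or below 20 µM; inactive means the rest.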

The experiment deals with CHO-CHOP cells viability, ATPlite luminescence, 24 h. In words: CHO-CHOP cell viability loss – 24 h exposure, ATPlite luminescence, cytotoxicity control for UPR adaptive arm activator project, SAR follow-up (AID 588567).
For `O=C(Nc1ccc(Cl)cc1)c1cc(-c2ccncc2)nc2ccccc12`, the IC50 is 63.7 µM (inactive).

Regarding `O=C(Nc1ccc(Br)c(C(F)(F)F)c1)c1cc(-c2ccncc2)nc2ccccc12`, the IC50 is 50.1 µM (inactive). Turning to `O=C(Nc1ccc(C(F)(F)F)cc1)c1cc(-c2ccncc2)nc2ccccc12`, the IC50 is 61.3 µM (inactive). With `Cc1nc(Nc2nc(-c3ccccc3)cc(=O)[nH]2)nc2ccccc12` the figure was 30.2 µM (inactive); with `Cc1ccc(NC(=O)c2cc(-c3ccncc3)nc3ccccc23)cc1`, > 80 µM (inactive); with `Cc1cc(Br)cc(NC(=O)c2cc(-c3ccncc3)nc3ccccc23)c1`, 64.8 µM (inactive). With `O=C(Nc1ccc(F)cc1)c1cc(-c2ccncc2)nc2ccccc12` the figure was > 80 µM (inactive).

For orientation: IC50 means the midpoint of a concentration-inhibition curve.

The record behind these values is PubChem BioAssay AID588567 (Sanford-Burnham Center for Chemical Genomics, 2011).
